{
  "source": "patent US20040048791A1",
  "about": "“Method for treating neoplastic cells using cycloprodigiosin or salt thereof” (priority 2002, published 2004)",
  "key": {"IκB kinase (IKK)": {"target": "T1, IκB kinase (IKK) (Homo sapiens, UniProt O14920+O15111)", "T1 sequence (O15111 1-745)": "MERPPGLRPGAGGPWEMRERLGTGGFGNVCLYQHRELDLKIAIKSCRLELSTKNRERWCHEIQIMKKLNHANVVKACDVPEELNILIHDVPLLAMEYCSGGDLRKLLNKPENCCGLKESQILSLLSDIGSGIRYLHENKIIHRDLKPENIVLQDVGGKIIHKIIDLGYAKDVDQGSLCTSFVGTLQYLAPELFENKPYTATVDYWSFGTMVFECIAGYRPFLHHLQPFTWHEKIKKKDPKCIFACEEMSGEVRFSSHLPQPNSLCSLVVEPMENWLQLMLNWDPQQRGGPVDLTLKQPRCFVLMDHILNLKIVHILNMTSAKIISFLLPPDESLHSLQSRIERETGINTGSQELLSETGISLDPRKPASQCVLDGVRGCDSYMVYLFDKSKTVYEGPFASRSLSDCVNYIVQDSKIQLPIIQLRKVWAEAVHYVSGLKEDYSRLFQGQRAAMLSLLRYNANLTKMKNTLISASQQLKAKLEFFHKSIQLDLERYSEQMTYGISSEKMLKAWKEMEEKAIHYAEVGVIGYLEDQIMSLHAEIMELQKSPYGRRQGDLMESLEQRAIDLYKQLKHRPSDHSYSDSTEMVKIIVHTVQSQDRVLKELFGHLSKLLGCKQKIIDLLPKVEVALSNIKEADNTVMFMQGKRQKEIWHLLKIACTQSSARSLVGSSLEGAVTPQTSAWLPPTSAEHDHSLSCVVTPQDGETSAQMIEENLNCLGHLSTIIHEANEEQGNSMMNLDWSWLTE", "T1 sequence (O14920 1-756)": "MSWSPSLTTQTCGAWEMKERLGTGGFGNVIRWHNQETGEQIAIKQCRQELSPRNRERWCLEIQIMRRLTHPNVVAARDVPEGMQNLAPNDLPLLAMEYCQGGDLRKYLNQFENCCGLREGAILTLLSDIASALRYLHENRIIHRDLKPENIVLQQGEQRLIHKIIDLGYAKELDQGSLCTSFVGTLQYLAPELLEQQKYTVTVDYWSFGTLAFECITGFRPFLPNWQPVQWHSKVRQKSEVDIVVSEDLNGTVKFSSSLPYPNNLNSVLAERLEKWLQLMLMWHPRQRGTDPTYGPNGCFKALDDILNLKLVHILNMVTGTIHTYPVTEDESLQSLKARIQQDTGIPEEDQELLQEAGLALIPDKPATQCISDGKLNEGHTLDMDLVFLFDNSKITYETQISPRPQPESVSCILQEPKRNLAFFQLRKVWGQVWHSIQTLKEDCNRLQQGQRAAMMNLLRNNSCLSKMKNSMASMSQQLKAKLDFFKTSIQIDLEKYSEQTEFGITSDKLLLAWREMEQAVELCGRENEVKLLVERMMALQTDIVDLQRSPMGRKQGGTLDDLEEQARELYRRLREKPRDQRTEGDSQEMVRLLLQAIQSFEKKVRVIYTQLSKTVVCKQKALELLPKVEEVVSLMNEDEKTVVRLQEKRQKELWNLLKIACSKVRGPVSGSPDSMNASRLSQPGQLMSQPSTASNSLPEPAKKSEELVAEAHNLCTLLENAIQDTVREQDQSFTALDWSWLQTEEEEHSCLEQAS", "assay": "IκB kinase activity in vitro", "format": "biochemical", "settings": "FIG. 14, hydrochloride", "description": "Accordingly, in order to identify the p65 kinase which cPrG-HCl suppressed, the effect of cPrG-HCl on PKA (FIG. 13), casein kinase II (CKII) (FIG. 12), and IκB kinase (IKK) (FIG. 14) was studied in vitro."}, "NF-κB": {"tested_on": "NF-κB", "assay": "NF-κB luciferase reporter assay in U373, 293, COS7 and MKN45 cells", "format": "cell-based, human; African green monkey", "settings": "all the cells tested: U373, 293, COS7, MKN45; FIGS. 6A to 6F", "protocol": "In order to find out whether the suppression of NF-κB and AP-1 activation was specific to HeLa cells used above, analysis was made with various kind of cells. The cells used were U373 cells (human brain tumor cells), 293 cells (human embryo-derived kidney cells), COS7 cells (African green monkey kidney-derived cells), and MKN45 cells (human gastric tumor cells).\nThe NF-κB reporter plasmid pIG3Luc was incorporated into cells by transfection. After 24 hours, the cells were pretreated with cPrG-HCl at a specified concentration for 1 hour and then stimulated with TNFα (20 ng/ml) or PMA (1 μg/ml) for 4 hours, after which luciferase activity was measured. Each activity was corrected for the amount of protein."}, "CRE binding factor": {"tested_on": "CRE binding factor", "assay": "CRE luciferase assay (pCRELuc) in COS-7 cells", "format": "cell-based, African green monkey", "settings": "PMA 1 μg/ml 4 hours, FIG. 8", "protocol": "Here in order to analyze the effect of cPrG-HCl on the CRE binding factor, luciferase assay was carried out using a reporter plasmid (pCRELuc) in which the luciferase gene is linked downstream of the CRE sequence.\nThe pCRELuc was transfected in COS-7 cells. After 24 hours, the cells were pretreated with cPrG-HCl at a specified concentration for 1 hour and further stimulated with phorbol ester myristate acetate PMA (1 μg/ml) for 4 hours, after which luciferase activity was measured."}, "AP-1": {"tested_on": "AP-1", "assay": "AP-1 luciferase reporter assay (pAPLuc) in HeLa cells", "format": "cell-based", "protocol": "In the same manner as described in Experimental example 1, HeLa cells were transfected with the AP-1 reporter gene plasmid pAPLuc. After 20 hours, the cells were pretreated with cPrG-HCl (1 μM) for 1 hour and then stimulated with TNFα (20 ng/ml) or PMA (1 μg/ml) for 4 hours, after which, luciferase activity was measured. Each activity was corrected for the amount of protein."}, "IL-8 promoter": {"tested_on": "IL-8 promoter", "assay": "IL-8 promoter luciferase assay (pIL-8Luc) in HeLa cells", "format": "cell-based", "settings": "TNFα 20 ng/ml 4 hours, FIG. 7", "protocol": "Now in order to analyze the effect of cPrG-HCl on IL-8 gene expression which is controlled by transcription factors such as NF-κB and AP-1, luciferase assay was carried out using a reporter plasmid (pIL-8Luc) in which the luciferase gene is bound downstream of the IL-8 promoter region. In the IL-8 promoter, NF-κB, AP-1, and NF-IL6 binding sequences are present.\nThe pIL-8Luc was incorporated into HeLa cells by transfection. After 24 hours, the cells were pretreated with cPrG-HCl at a specified concentration for 1 hour and then stimulated with TNFα (20 ng/ml) for 4 hours, after which luciferase activity was measured."}},
  "note": "Entries after “also recorded” stand apart in the source; their conditions may differ. Counter-ions that a name gives are not always drawn.",
  "data": [
    {"smiles": "COC1=CC(c2ccc[nH]2)=N/C1=C\\c1[nH]c(C)c2c1C(C)CCC2", "note": "(stereo not drawn) [cPrG-HCl, Cycloprodigiosin hydrochloride]", "values": [
      {"measurement": "effect on IκB kinase (IKK) activity", "setting": "IκB kinase (IKK)", "value": "does not directly suppress; also recorded: no suppressive effect"},
      {"measurement": "NF-κB transcriptional activation", "setting": "NF-κB", "value": "suppressed"},
      {"measurement": "PMA-induced CRE-dependent transcriptional activity", "setting": "CRE binding factor", "value": "markedly suppressed"},
      {"measurement": "AP-1 transcriptional activity", "setting": "AP-1; HeLa cells, 1 μM, TNFα (20 ng/ml) or PMA (1 μg/ml), FIG. 5", "value": "significantly suppressed"},
      {"measurement": "PMA-induced AP-1 transcriptional activation", "setting": "AP-1; in the presence of imidazole", "value": "suppressed"},
      {"measurement": "IL-8 promoter-dependent transcriptional activity induced by TNFα", "setting": "IL-8 promoter", "value": "markedly suppressed"}
    ]}
  ]
}
